Source: article PMC5897774, “Mitotic spindle association of TACC3 requires Aurora‐A‐dependent stabilization of a cryptic α‐helix” (The EMBO Journal, 2018)
Where two headings read alike, the source gives them in different places. One block for each molecule: values may come before it. Residues, ends and D or L forms follow the SMILES beside them. No end group written: not given here.

Key:
[1] = target: T1, Aurora‐A (Homo sapiens, UniProt O14965, C290A/C393A); test: FP binding assay, FAM-TACC3 peptides to Aurora‐A (WT); settings: fluorescence polarization
T1 construct: pET30TEV Aurora‐A 122–403 C290A, C393A; made in house
T1 sequence (O14965 122-403 C290A/C393A): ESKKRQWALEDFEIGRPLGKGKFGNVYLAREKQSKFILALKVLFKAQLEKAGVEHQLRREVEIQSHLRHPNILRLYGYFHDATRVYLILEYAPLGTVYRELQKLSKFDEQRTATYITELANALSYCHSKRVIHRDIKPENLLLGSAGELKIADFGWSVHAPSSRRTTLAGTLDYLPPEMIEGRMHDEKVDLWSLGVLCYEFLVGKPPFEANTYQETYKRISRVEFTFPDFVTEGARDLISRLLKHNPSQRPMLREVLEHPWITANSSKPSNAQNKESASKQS
Procedure: The contributions of the site 1 residues to the interaction were quantified using fluorescence polarization spectroscopy (FP) with a set of fluorescein (FAM)‐labelled peptides. […] Mutations within the pocket on Aurora‐A which accommodates the F525 side chain (E134A, R137A, L149A, R151A and I158A mutations) all reduced the affinity for the WT TACC3 522–536 peptide.
Aurora‐A/TACC3 fluorescence polarization assays were performed as stated (Richards et al, 2016) using FAM‐TACC3 peptides (PPR, Cambridge; Almac, Craigavon). Binding assays were performed in triplicate. FP signal was fit to a one‐site total binding model in Prism 6 (GraphPad). Results are reported as K d ± SE.

[2] = system: mitotic spindle, HeLa cells; test: Spindle localization of re‐expressed GFP‐CHC constructs in CHC‐depleted HeLa cells; assay type: cell-based, human; settings: metaphase, endogenous CHC depleted, confocal imaging
Procedure: For RNAi and re‐expression of GFP‐tagged proteins in HeLa cells, siRNA and pBrain plasmids were used. Briefly, for TACC3, cells were transfected with siRNA on day 0, transfected 10 h later with pBrain plasmid and analysed on day 2. For CHC, cells were transfected with siRNA on day 0, transfected with pBrain plasmids on day 2 and fixed on day 4.
For immunofluorescence studies on the CHC/TACC3 interface mutants, cells were fixed with PTEMF (50 mM PIPES, pH 7.2, 10 mM EGTA, 1 mM MgCl2, 0.2% Triton X‐100, and 4% paraformaldehyde) for 15 min at RT, and then permeabilized (PBS with 0.1% Triton X‐100) for 10 min. Cells were blocked (PBS with 3% BSA, 5% goat serum) for 30 min, and then incubated for 1 h with the specified primary antibodies: mouse anti‐CHC (X22, Affinity BioReagents, 1:1,000), rabbit anti‐alpha tubulin (Thermo, PA5‐19489, 1:1,000), mouse anti‐TACC3 (AbCam, ab56595, 1:1,000). Secondary antibodies labelled with Alexa Fluor 568 or Alexa Fluor 647 from Life Technologies (diluted 1:500) were used along with DAPI. […] Equal exposure settings and scaling were used between conditions.
For spindle enrichment analysis, mean pixel density in two 10 × 10 pixel ROI was measured either over the spindle (away from poles), in the cytoplasm or in a non‐cell region of background, using ImageJ. Background was subtracted from the spindle and cytoplasm measurements, and spindle fluorescence was then divided by cytoplasm fluorescence. Sample sizes 48–53 cells (TACC3) and 36–51 cells (CHC) over two experiments were analysed per condition. […] Differences in spindle recruitment were evident at all expression levels. IgorPro was used to find and plot the ratio of spindles to cytoplasmic fluorescence intensity per cell. Images were cropped in ImageJ, and figures were assembled in Adobe Illustrator. Some images were contrast adjusted for presentation.

[3] = target: T1, Aurora‐A; parameters: method as in Burgess et al, 2015; settings: previous data, effect of F525A mutation; ref Burgess et al, 2015; read-out: K d of the interaction; cited from earlier work
[4] = target: T1, Aurora‐A; test: Radioactive 32P‐ATP kinase assay, MBP substrate; assay type: biochemical; settings: 0.625 μM phosphorylated Aurora‐A, 5 μM TACC3^N‐ACID, 0.25 mg/ml MBP, 10 min, scintillation counting, duplicate
Procedure: Figure EV2 Biochemical and structural analysis of the Aurora‐A/TACC3 complex • FP assay between FAM‐TACC3 519–570 and Aurora‐A. Reactions were performed in triplicate. Error bars represent standard deviation. […] Error bars represent standard deviation. […] This peptide was based on the location of a sulphate ion, originating from the crystallization solution, at the interface of the Aurora‐A/TACC3 interface in the crystal structure, close to TACC3 T534. […] Myelin basic protein (MBP) was used as a generic kinase substrate. Incorporation of radioisotope was measured by scintillation counting. Reactions were performed in duplicate. Error bars represent standard error. Assays were compared to the WT TACC3^N‐ACIDH6c reaction by one‐way ANOVA with Dunnett's post hoc test. […], **P < 0.01 and ****P < 0.0001. • Multiple sequence alignment of TACC3 (above) and Aurora‐A (below) orthologs spanning the interaction binding interface. Key binding residues are boxed in red. The TACC3 phosphorylation sites, S552 and S558, are boxed in blue. The TACC3 LL motif required for binding to CHC is boxed in green. The TACC3 α‐helix produced on binding to CHC is identified by a black line. TEXT PRINTED IN THE PICTURE: (A) TACC3 519-570: 3.0 ± 0.2 μM | (B) WT: 20 ± 1 μM | (B) R526A: 49 ± 2 μM | (B) phospho-T534: 14 ± 1 μM
Radioactive ^32P‐ATP kinase assays were performed as described previously (Burgess et al, 2015). In brief, 0.625 μM Aurora‐A^M3KD WT or selected mutant was incubated with 0.25 mg/ml MBP alone and in the presence of 5 μM TACC3^N‐ACID WT or mutant for 10 min. Reactions were terminated by the addition of 2% (v/v) orthophosphoric acid. Samples were spotted onto P81 Whatman paper, washed extensively with 0.2% (v/v) orthophosphoric acid and incorporation of radioisotope measured by scintillation counting.

[5] = system: Aurora‐A KD (substrate: Aurora‐A D274N); test: Substrate phosphorylation of kinase‐dead Aurora‐A D274N by Aurora‐A KD (Western blot αphospho‐T288); assay type: biochemical, human; settings: Aurora‐A D274N as substrate, 1 h, room temperature
Text: (§1) Figure 2 TACC3 523–534 forms a docking interaction on the N‐lobe of Aurora‐A • Magnified view of the site 1 interaction. • Schematic showing the key features of the TACC3/Aurora‐A interface. • FP assays of binding between site 1 of TACC3 and Aurora‐A. The sequence of TACC3 present in the complex crystal structure is shown (top) with the residues of the site 1 FP peptide coloured orange and mutated residues identified by coloured circles corresponding to the curves shown in the FP assay (below). Data represent mean of three experiments ± SD. […] Data represent mean of three experiments ± SD. […] Reactions were analysed by SDS–PAGE (above) and Western blotting with an αphospho‐T288 Aurora‐A antibody (below). […] They are listed as printed.
(§2) Autophosphorylation assays were performed as for radioactive ^32P‐ATP reactions using Aurora‐A 122–403 co‐expressed with lambda phosphatase for 1 h at room temperature with His‐Aurora‐A D274N as a substrate in replace of MBP. Reactions were resolved by SDS–PAGE and subject to Western blotting using an α‐phospho‐T288 Aurora‐A antibody (CST 2914, 1:2,000) as per the manufacturer's recommendation.

[6] = system: unphosphorylated Aurora‐A KD; test: Autophosphorylation assay of unphosphorylated Aurora‐A KD (Western blot αphospho‐T288); assay type: biochemical, human; settings: unphosphorylated Aurora‐A 122–403, 1 h, room temperature
Text: as §1, §2

[7] = target: T2, FAM‐TACC3 549–570 phosphorylated on S558 (FAM‐phospho‐TACC3^CID) (human, UniProt Q9Y6A5 549-570, fluorescein (FAM) label; phosphoserine at 558); test: fluorescence polarisation; CHC proteins serially diluted in 20 mM HEPES–NaOH pH 7.5, 200 mM NaCl, 5 mM DTT; 50 nM FAM‐labelled TACC3 peptide; 30 min at room temperature; read at 25°C; settings: both partners purified
T2 construct: TACC3, human, aa549–570 (TACC3^CID); also called pTACC3^CID; FAM‐labelled pTACC3^CID; source: FAM‐labelled peptide (FAM‐TACC3 peptides: PPR, Cambridge; Almac, Craigavon)
T2 peptide (looked up): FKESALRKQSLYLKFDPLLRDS

Molecule: GFP‐CHC L476D, L480D: GFP-CHC mutated in the TACC3 binding site
spindle localization of GFP‐CHC construct [2]: impaired in spindle localization

Molecule: GFP‐CHC D455K: mutation of a residue that holds R481 in place
spindle localization of GFP‐CHC construct [2]: impaired in spindle localization

Molecule: GFP‐CHC L503A, Y504A: GFP-CHC mutated in the TACC3 binding site
spindle localization of GFP‐CHC construct [2]: impaired in spindle localization

Molecule: TACC3^N‐ACID F525A: TACC3^N-ACID with F525A mutation (ELKEESARDPAEVLGTGAEVDYLEQFGTSSFKESALRKQSLYLKF; not fully specified (C-terminus))
Kd [3]: > 150 µM
stimulation of Aurora‐A activity [4]: twofold–threefold
substrate phosphorylation on T288 (Aurora‐A D274N) [5]: reduced
Aurora‐A autophosphorylation on T288 [6]: reduced

Molecule: GFP‐CHC R481E: GFP-CHC mutated in the TACC3 binding site
spindle localization of GFP‐CHC construct [2]: impaired in spindle localization

B1: CHC 1–574 F492Y (domain or fragment, UniProt Q00610 1-574, looked up)
chain: MAQILPIRFQEHLQLQNLGINPANIGFSTLTMESDKFICIREKVGEQAQVVIIDMNDPSNPIRRPISADSAIMNPASKVIALKAGKTLQIFNIEMKSKMKAHTMTDDVTFWKWISLNTVALVTDNAVYHWSMEGESQPVKMFDRHSSLAGCQIINYRTDAKQKWLLLTGISAQQNRVVGAMQLYSVDRKVSQPIEGHAASFAQFKMEGNAEESTLFCFAVRGQAGGKLHIIEVGTPPTGNQPFPKKAVDVFFPPEAQNDFPVAMQISEKHDVVFLITKYGYIHLYDLETGTCIYMNRISGETIFVTAPHEATAGIIGVNRKGQVLSVCVEEENIIPYITNVLQNPDLALRMAVRNNLAGAEELFARKFNALFAQGNYSEAAKVAANAPKGILRTPDTIRRFQSVPAQPGQTSPLLQYFGILLDQGQLNKYESLELCRPVLQQGRKQLLEKWLKEDKLECSEELGDLVKSVDPTLALSVYLRANVPNKVIQCYAETGQVQKIVLYAKKVGYTPDWIFLLRNVMRISPDQGQQFAQMLVQDEEPLADITQIVDVFMEYNLIQQCTAFLLDALKNNR
notes: source: expressed and purified as the WT protein (modified pGEX vector; GST cleaved with TEV)
fold increase in Kd against WT [7]: > 6 fold

Continued, values first:

Kd ([1]; FAM‐labelled peptide, triplicate, one‐site total binding fit, legend: mean of three experiments ± SD, methods: K d ± SE, read-out: K d (binding affinity)): 3 ± 0.2 µM
Molecule: ELKEESFRDPAEVLGTGAEVDYLEQFGTSSFKESALRKQSLYLKFDPLLRDS [FAM‐TACC3 519–570]

reduced affinity ([1]; relative to WT TACC3 522–536 peptide): 10 fold
Molecule: CC(C)[C@H](NC(=O)[C@H](CCC(=O)O)NC(=O)[C@H](C)NC(=O)[C@@H]1CCCN1C(=O)[C@H](CC(=O)O)NC(=O)[C@H](CCCNC(=N)N)NC(=O)[C@H](Cc1ccccc1)NC(=O)[C@H](CO)NC(=O)[C@H](CCC(=O)O)NC(=O)[C@H](CCC(=O)O)NC(=O)c1ccc2c(c1)C(=O)OC21c2ccc(O)cc2Oc2cc(O)ccc21)C(=O)N[C@@H](C)C(=O)NCC(=O)N[C@H](C(=O)NCC(=O)N[C@@H](C)C(=O)O)[C@@H](C)O [L532A] (HELM PEPTIDE1{[O=C1OC2(c3ccc(O)cc3Oc3cc(O)ccc32)c2ccc(C(=O)[*:2])cc21].E.E.S.F.R.D.P.A.E.V.A.G.T.G.A}$$$$V2.0; N-terminus and C-terminus assumed)

stimulation of Aurora‐A activity [4]: twofold–threefold
Molecule: TACC3^N‐ACID L532A: TACC3^N-ACID with L532A mutation (ELKEESFRDPAEVAGTGAEVDYLEQFGTSSFKESALRKQSLYLKF; not fully specified (C-terminus))
